In US12313632B2, “Tepoxalin targeting of ABCB1 overexpressing cancers” (THE BROAD INSTITUTE, INC., priority 2018, dated 2025):
Where two headings read alike, the source gives them in different places. Values belong to the molecule of their own block, whether it stands above or below them.

How the values were obtained:
LS1034 cells [1] = assay: Compound cell permeability assay (LC-MS); conditions: 3 hour incubation, 20 μM, with or without ABCB1 knockout or elacridar
Procedure: (§2) Compound was incubated in naïve cell media (no cell control, or NCC) or in the presence of cells at 1 million cells/mL. The incubation was carried out in a 37° C. with 5% CO2 cell incubator with gentle plate shaking for 3 hours. Following the incubation, the NCC samples were placed on the bench until final analysis. Cell samples were centrifuged at 500×g for 5 minutes. The supernatant was removed, and the cells were washed twice with cold PBS. Cells were again centrifuged at 500×g for 5 minutes, the supernatant was removed/discarded, and cells were resuspended in 130 pL water (Honeywell, catalog #33015-1L). The entire volume was then transferred into a Covaris microTUBE plate (Covaris, catalog #220078) and sonicated on a Covaris LE220 focused-ultrasonicator. Samples were transferred to a 96wp and centrifuged at 3000×g for 15 min at 20° C. The supernatant was transferred to a new 96wp. For both the NCC and cell samples, 5 pL was transferred to a 96wp. To each sample was added 45 pL cell media, 50 pL water, and 50 pL acetonitrile containing internal standard. […]
(§3) Samples were analyzed on a UPLC-MS/MS system consisting of a Waters Acquity I-Class FTN and AB Sciex 4500 Triple Quad mass spectrometer with compounds being detected by positive mode MRM detection. […] Sample concentrations were determined using a standard curve and dilution quality control samples prepared in a surrogate matrix. […]

LS1034 cells [2] = assay: CellTiter-Glo cellular viability assay, killing of LS1034 cells; type: cell-based, human; conditions: for IC50: Homo sapiens, LS-1034
Procedure: (§1) Cell viability was assayed using a modified manufacturer's protocol for CellTiter-Glo® (Promega #G7573). Cells were seeded at a density of 2000 cells per well in a 96 well black, clear bottom plate (Corning #89091-012) in 100 uL total media per well. The following day different concentrations of compounds at various doses were printed in triplicate in a random well format using the Tecan D300e Digital Dispenser. After 120H, 60 μL of a 1:3 solution of CellTiterGlo reagent in 1×PBS (Corning #01018002) was added per well and allowed to incubate at RT for 10 mins. Luminescence was measured with an integration time of 0.1 s using Envision Microplates Reader (PERKIN ELMER #2105-0010). Biological replicates were averaged and normalized to vehicle control. Dose curves were generated using Graphpad Prism.

[3] = published pharmacokinetic studies; cited from earlier work
cyclooygenase = conditions: in vitro; cited from earlier work
MDR1 [4] = biological target: T1, MDR1 (Homo sapiens, UniProt P08183); assay: P-Glycoprotein transporter cell based antagonism assay (calcein AM assay); conditions: read-out: IC50 in calcein AM assay; relies upon cell-permeability of compounds
[5] = system: barcode-tagged neoplastic cell line populations sorted by ABCB1 expression; assay: PRISM multiplexed cellular viability screen, cell killing plotted against ABCB1 expression; conditions: for Phenocopy of tepoxalin activity in PRISM: tested at the same dose
Procedure: PRISM cell line barcoding, pooling, and screening was performed as previously described with several improvements to the original method (5). First, the lentiviral vector was modified to encode the unique barcode identifier at the end of the puromycin resistance gene. This enables barcodes to be detected using a variant of the mRNA capture and Luminex detection method developed for the L1000 gene expression assay (6). Second, a set of ten inert barcodes were spiked-in to each well of each plate after cell lysis to control for variation in PCR amplification as detailed below.
Cell viability was calculated as the ratio of nMFI to the median of the nMFI from the DMSO-treated negative controls for each cell line on each plate. Batch effects produced from variable detection and assay conditions were then removed using ComBat (8). The final viability values were calculated as the median of the batch-corrected cell viabilities from biological replicates for each cell line, compound and dose.
Measures of dose response were obtained by fitting 3-parameter logistic curves to viability values for each compound and cell line using the R package ‘drc’. Following the practice of Smirnov and Safikhani (9), viability was truncated at 1.0 and fit as a function of drug concentration according to:
High-throughput “next gen” sequencing performed upon arrayed cell populations allowed for well-by-well tracking of cell viability over time, in the presence and absence of library compounds, via barcode enumeration and deconvolution of treated and control cell line populations. Using this approach, cell viability dose-response curves were generated for each compound of the drug repurposing library, across all targeted cell lines present in the barcode-tagged neoplastic cell line “PRISM” populations.
By sorting the “PRISM” population cell lines by their respective relative levels of ABCB1 expression (as assessed by RNAseq), the cell killing profile of each drug repurposing library compound tested could be plotted against relative levels of ABCB1 expression, thereby obtaining a cell killing profile that served as a proxy for dose-response of the library compound across progressively increasing levels of ABCB1 expression.

Kuramochi-ABCB1 cells = assay: Killing of native Kuramochi cells versus Kuramochi cells overexpressing ABCB1 (Kuramochi-ABCB1); type: cell-based, human; conditions: for Change of compound-mediated killing with overexpressed ABCB1: Kuramochi-ABCB1 versus native Kuramochi cells
Procedure: Cell viability was assayed using a modified manufacturer's protocol for CellTiter-Glo® (Promega #G7573). […] The following day different concentrations of compounds at various doses were printed in triplicate in a random well format using the Tecan D300e Digital Dispenser. […] Biological replicates were averaged and normalized to vehicle control. Dose curves were generated using Graphpad Prism.
Next, the consequence of ectopic ABCB1 overexpression in cells resistant to tepoxalin was evaluated.

REC1 cells = assay: Expanded cell line viability comparison, killing of REC1 cells; type: cell-based, human; conditions: REC1 versus LS1034
Procedure: as §1

MDR1 [6] = biological target: T1, MDR1; assay: cell-based
[7] = rat model, compared with naproxen; cited from earlier work
MDR1 [8] = biological target: T1, MDR1; assay: cell-based; remark: listed apart in the source
LS1034 cells [9] = system: LS1034 cells
Procedure: as §2, §3

[10] = system: LS1034 cells administered sg ABCB1-2; assay: Viability of LS1034 cells given control sgRNA (sg GFP) or ABCB1 knockdown sgRNA (sg ABCB1-2); type: cell-based, human; conditions: sg ABCB1-2 compared to control sgRNA sg GFP
Procedure: A mixture of 3E6 cells, virus, and media with 4 μg/mL polybrene (Millipore) at a total volume of 2 mL was plated per well of a 12 well plate. Cells were centrifuged at 2000 RPM for 2 hours at 30° C. After removal from incubator, 2 mL of fresh media was added to each well and cells were allowed to incubate at 37° C. overnight. The following day cells were selected for with puromycin for 3-10 days, or until the non-infected control cell were completely non-viable.
as §1, with “Prism. […]” for “Prism.”

[11] = PRISM population, ABCB1 expression by RNAseq
[12] = read-out: IC50 value (absolute) in killing LS1034 cells

T1 sequence (P08183 whole entry): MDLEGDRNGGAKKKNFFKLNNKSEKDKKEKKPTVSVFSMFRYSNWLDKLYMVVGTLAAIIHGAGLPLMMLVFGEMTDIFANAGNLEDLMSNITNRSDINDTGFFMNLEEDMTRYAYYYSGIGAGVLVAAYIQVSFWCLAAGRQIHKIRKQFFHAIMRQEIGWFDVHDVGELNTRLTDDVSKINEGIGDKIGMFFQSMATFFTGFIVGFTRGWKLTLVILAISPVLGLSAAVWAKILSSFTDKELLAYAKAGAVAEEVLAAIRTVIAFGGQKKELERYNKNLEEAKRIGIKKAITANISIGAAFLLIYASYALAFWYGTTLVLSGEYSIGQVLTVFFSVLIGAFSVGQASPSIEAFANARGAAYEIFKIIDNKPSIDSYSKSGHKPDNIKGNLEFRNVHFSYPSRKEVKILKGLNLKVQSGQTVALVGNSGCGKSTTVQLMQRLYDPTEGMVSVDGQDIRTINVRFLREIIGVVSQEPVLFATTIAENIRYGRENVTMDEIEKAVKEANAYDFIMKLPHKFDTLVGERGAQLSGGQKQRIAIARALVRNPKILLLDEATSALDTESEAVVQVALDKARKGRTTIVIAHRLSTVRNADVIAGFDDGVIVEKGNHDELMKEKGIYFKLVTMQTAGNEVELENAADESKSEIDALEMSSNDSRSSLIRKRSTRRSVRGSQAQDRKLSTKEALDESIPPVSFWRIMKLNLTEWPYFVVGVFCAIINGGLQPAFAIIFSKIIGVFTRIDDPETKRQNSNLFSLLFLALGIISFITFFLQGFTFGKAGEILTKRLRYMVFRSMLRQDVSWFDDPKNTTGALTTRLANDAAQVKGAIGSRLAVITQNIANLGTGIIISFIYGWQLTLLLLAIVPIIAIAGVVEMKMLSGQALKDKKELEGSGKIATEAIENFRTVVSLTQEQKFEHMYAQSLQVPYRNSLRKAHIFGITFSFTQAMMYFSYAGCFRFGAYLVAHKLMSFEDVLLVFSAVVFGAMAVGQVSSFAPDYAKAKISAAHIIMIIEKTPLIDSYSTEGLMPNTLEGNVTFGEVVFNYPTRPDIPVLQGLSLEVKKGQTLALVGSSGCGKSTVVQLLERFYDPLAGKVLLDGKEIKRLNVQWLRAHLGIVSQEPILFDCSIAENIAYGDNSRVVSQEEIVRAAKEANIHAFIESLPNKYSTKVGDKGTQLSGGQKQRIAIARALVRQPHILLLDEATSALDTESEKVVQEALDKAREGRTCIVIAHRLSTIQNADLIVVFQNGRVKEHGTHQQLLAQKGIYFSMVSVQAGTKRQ

- Cell permeability (LS1034 cells [1]): cell impermeability
- IC50 (MDR1 [4]): > 100 µM
Molecule: COc1ccc(-n2nc(CCC(=O)O)cc2-c2ccc(Cl)cc2)cc1 [RWJ20142]
- Viability of treated LS1034 cells (LS1034 cells [2]; LS1034 cells): no decrease in viability
- Maximal plasma concentration relative to parent compound [3]: higher maximal plasma concentration than the parent compound
- Activity against cyclooxygenase (cyclooygenase): active

Molecule: CC(C)C[C@H](NC(=O)[C@H](CCc1ccccc1)NC(=O)CN1CCOCC1)C(=O)N[C@@H](Cc1ccccc1)C(=O)N[C@@H](CC(C)C)C(=O)[C@@]1(C)CO1 [carfilzomib, Carfilzomib]
- Cell killing profile against relative levels of ABCB1 expression [5, 11]: robust killing of cells that expressed low levels of ABCB1

Molecule: COc1cccc2c1C(=O)c1c(O)c3c(c(O)c1C2=O)C[C@@](O)(C(C)=O)C[C@@H]3O[C@H]1C[C@H](N)[C@H](O)[C@H](C)O1 [daunorubicin, Daunorubicin]
- Cell killing profile against relative levels of ABCB1 expression [5]: robust killing of cells that expressed low levels of ABCB1

Molecule: CC(=O)O[C@@]12CO[C@@H]1C[C@H](O)[C@@]1(C)C(=O)[C@H](O)C3=C(C)[C@@H](OC(=O)[C@H](O)[C@@H](NC(=O)OC(C)(C)C)c4ccccc4)C[C@@](O)([C@@H](OC(=O)c4ccccc4)[C@H]21)C3(C)C [docetaxel, Docetaxel]
- Cell killing profile against relative levels of ABCB1 expression [5, 11]: robust killing of cells that expressed low levels of ABCB1

Molecule: O=C(C(c1ccccc1)c1ccccc1)N1CCN(CC(O)COc2cccc3ncccc23)CC1 (stereo not drawn) [dofequidar]
- IC50 (LS1034 cells [2]; [12]): > 10 µM

Molecule: COc1cccc2c1C(=O)c1c(O)c3c(c(O)c1C2=O)C[C@@](O)(C(=O)CO)C[C@@H]3O[C@H]1C[C@H](N)[C@H](O)[C@H](C)O1 [doxorubicin, Doxorubicin]
- Change of compound-mediated killing with overexpressed ABCB1 (Kuramochi-ABCB1 cells; 144 hours): dampened
- Cell killing profile against relative levels of ABCB1 expression [5, 11]: robust killing of cells that expressed low levels of ABCB1

Molecule: COc1cc2c(cc1OC)CN(CCc1ccc(NC(=O)c3cccc4c(=O)c5cccc(OC)c5[nH]c34)cc1)CC2 [elacridar]
- Cell killing by the compound alone in native and ABCB1-overexpressing Kuramochi cells (Kuramochi-ABCB1 cells; 144 hours): only modest cell killing
- Killing of REC1 cells compared with LS1034 cells (IC50 comparison) (REC1 cells): comparable IC50 values for REC1 killing and LS1034 killing
- Phenocopy of tepoxalin activity in PRISM [5]: did not phenocopy tepoxalin
- IC50 (LS1034 cells [2]; [12]): 1.9 µM

Molecule: COc1cccc2c1C(=O)c1c(O)c3c(c(O)c1C2=O)C[C@@](O)(C(=O)CO)C[C@@H]3O[C@H]1C[C@H](N)[C@@H](O)[C@H](C)O1 [epirubicin, Epirubicin]
- Cell killing profile against relative levels of ABCB1 expression [5, 11]: robust killing of cells that expressed low levels of ABCB1

Molecule: CC(=O)[C@]1(O)Cc2c(O)c3c(c(O)c2[C@@H](O[C@H]2C[C@H](N)[C@H](O)[C@H](C)O2)C1)C(=O)c1ccccc1C3=O [idarubicin, Idarubicin]
- Cell killing profile against relative levels of ABCB1 expression [5, 11]: robust killing of cells that expressed low levels of ABCB1

Molecule: C/C(=C\c1csc(C)n1)[C@@H]1C[C@@H]2O[C@]2(C)CCC[C@H](C)[C@H](O)[C@@H](C)C(=O)C(C)(C)[C@@H](O)CC(=O)N1 [ixabepilone, Ixabepilone]
- Cell killing profile against relative levels of ABCB1 expression [5]: robust killing of cells that expressed low levels of ABCB1

Molecule: CC(=O)O[C@H]1C(=O)[C@@]2(C)[C@H]([C@H](OC(=O)c3ccccc3)[C@]3(O)C[C@H](OC(=O)[C@H](O)[C@@H](NC(=O)c4ccccc4)c4ccccc4)C(C)=C1C3(C)C)[C@]1(OC(C)=O)CO[C@@H]1C[C@@H]2O [paclitaxel, Paclitaxel]
- Change of compound-mediated killing with overexpressed ABCB1 (Kuramochi-ABCB1 cells; 144 hours): dampened
- Killing of REC1 cells compared with LS1034 cells (IC50 comparison) (REC1 cells): more robust killing of REC1 cells than LS1034 cells
- IC50 (LS1034 cells [2]; read-out: IC50 in killing LS1034 cells): 0.165 µM

Molecule: COc1cc2c(cc1OC)CN(CCc1ccc(NC(=O)c3cc(OC)c(OC)cc3NC(=O)c3cnc4ccccc4c3)cc1)CC2 [tariquidar]
- Phenocopy of tepoxalin activity in PRISM [5]: did not phenocopy tepoxalin
- IC50 (LS1034 cells [2]; [12]): > 10 µM

- IC50 (MDR1 [6]): 32 µM
- IC50 (MDR1 [8]): 12 µM
- Cell permeability (LS1034 cells [9]): readily cell permeable
Molecule: COc1ccc(-n2nc(CCC(=O)N(C)O)cc2-c2ccc(Cl)cc2)cc1 [tepoxalin]
- Change of compound-mediated killing with overexpressed ABCB1 (Kuramochi-ABCB1 cells; 144 hours): enhanced
- Dose-response cell killing curves in combination with 2 μM elacridar, across ABCB1 expression/overexpression (Kuramochi-ABCB1 cells; combination with 2 μM elacridar, Kuramochi versus Kuramochi-ABCB1, 144 hours): impervious (did not shift)
- Killing of REC1 cells compared with LS1034 cells (IC50 comparison) (REC1 cells): more robust killing of REC1 cells than LS1034 cells
- Gastric ulcers at an effective dose [7]: fewer gastric ulcers in a rat model than naproxen
- Cell killing profile against relative levels of ABCB1 expression [5, 11]: progressively enhanced killing of cell lines in positive correlation with increasing levels of ABCB1
- IC50 (LS1034 cells [2]; [12]): 7.8 µM
- Effect of elacridar co-treatment on killing of LS1034 cells (LS1034 cells [2]; LS1034, 120H, co-treatment with the MDR1 inhibitor elacridar across dose ranges): rescued
- Effect of sg ABCB1-2 on compound-mediated killing of LS1034 cells [10]: effectively blocked

Molecule: C/C=C/C[C@@H](C)C(=O)[C@H]1C(=O)N[C@@H](C(C)C)C(=O)N(C)CC(=O)N(C)[C@@H](CC(C)C)C(=O)N[C@@H](C(C)C)C(=O)N(C)[C@@H](CC(C)C)C(=O)N[C@@H](C)C(=O)N[C@H](C)C(=O)N(C)[C@@H](CC(C)C)C(=O)N(C)[C@@H](CC(C)C)C(=O)N(C)[C@@H](C(C)C)C(=O)N1C [valspodar]
- IC50 (LS1034 cells [2]; [12]): > 10 µM

Molecule: CC[C@]1(O)C[C@@H]2C[N@@](CCc3c([nH]c4ccccc34)[C@@](C(=O)OC)(c3cc4c(cc3OC)N(C=O)[C@H]3[C@@](O)(C(=O)OC)[C@H](OC(C)=O)[C@]5(CC)C=CCN6CC[C@]43[C@@H]65)C2)C1 [vincristine, Vincristine]
- Cell killing profile against relative levels of ABCB1 expression [5, 11]: robust killing of cells that expressed low levels of ABCB1

Molecule: O[C@@H](COc1cccc2ncccc12)CN1CCN([C@@H]2c3ccccc3[C@@H]3[C@H](c4ccccc42)C3(F)F)CC1 [zosuquidar]
- IC50 (LS1034 cells [2]; [12]): > 10 µM

Molecule: Romidepsin
- Cell killing profile against relative levels of ABCB1 expression [5]: robust killing of cells that expressed low levels of ABCB1

Molecule: Vinorelbine
- Cell killing profile against relative levels of ABCB1 expression [5, 11]: robust killing of cells that expressed low levels of ABCB1
